Patent publication US20100099109A1, “Methods for Analyzing Drug Response” (NODALITY, INC., A DELAWARE CORPORATION, priority 2008, published 2010)
Entries after “also recorded” stand apart in the source; their conditions may differ.

Columns and labels:
Healthy myeloid cells = test: Mylotarg treatment of healthy myeloid cells (DNA damage and apoptosis); assay type: cell-based; conditions: at 72 h
From the text: In some embodiments, the invention may identify a set of drug response signatures in disease cells. The drug response signature is a profile of the activation levels of activatable elements following in vitro exposure of patient samples to a drug and one or more modulators, and can predict whether patients may respond to the drug. […] In some embodiments, other measurements of cell viability may be used, for example cleaved caspase 3, or amount of dyes staining or other stains, for example: propidium idodide, SYTOX, TUNEL, or acridine orange. […] For review, see van Attikum H., and Gasser S. M. Trends in Cell Biology 19: pp. 207-17 (2009). ATR and ATM kinase activity in response to DNA damage activates Chk1 and Chk2, respectively. […] For review, see Abraham, R. T. Cell cycle checkpoint signaling through the ATM and ATR kinases. Genes & Dev. 15: 2177-96 (2001). […] This is also seen at earlier timepoints.

[1] = test system: Mylotarg refractory cell lines; test: Mylotarg exposure and modulated signaling in resistant cell lines; assay type: cell-based
Method: (§1) The experimental measurements included forward and side scatter, the use of viability dyes (amine aqua and propidium iodide (PI)), and determination of cell cycle and apoptosis by measuring DNA content with DRAQ5. Additionally, cell cycle progression was measured by determining levels of cyclin B1, phosphorylated histone H3, and phosphorylated CDK-1. All these determinations were made in freshly thawed as well as in cultured cycling cells.
(§2) After incubation with fluorochrome-conjugated antibody panels that recognized: p-H2AX, p-Chk2, p-ATM, p-53, cleaved PARP and cleaved caspase 3, cells were processed for cytometry as described above.
(§3) Experiments were conducted in which cell lines were exposed for 5-15 minutes to growth factors and cytokines, after which cells were fixed, permeabilized and incubated with panels of fluorochrome-conjugated antibody panels that recognized intracellular signaling molecules. After processing, cells were acquired on the cytometer.

primary AML cell sample = test: Mylotarg response signatures (DNA damage response by p-CHK2/p-H2AX; apoptosis by cleaved PARP, FSC and viability dyes), flow cytometry; assay type: cell-based, human
Method: The present illustrative example represents how to analyze cells in one embodiment of the present invention. There are several steps in the process, such as treatment with modulator, incubation with antibodies, and processing sample for acquisition of cells on the cytometer. Treatment with modulator(s) can start with thawed cryopreserved cells and end with cells fixed in PFA and permeabilized in methanol. Then the cells can be incubated with an antibody directed to a particular protein of interest and then analyzed using a flow cytometer. A protocol similar to the following was used to analyze AML cells from patient samples. The materials and methods described in this example can be used and/or were used in the other examples described below.
Cell thawing and live/dead staining: Cells are thawed_in a 37° C. water bath, gently resuspend in the vial, and transferred to a 15 mL conical tube. The 15 mL tube is centrifuged at 930 RPM (200×g) for 8 minutes at room temperature. The supernatant is then aspirated, and the pellet is gently resuspended in 1 mL media A. The cell suspension is filtered through a 70 um cell strainer into a new 15 mL tube. The cell strainer is then rinsed with 1 mL media A and another 12 mL of media A into the 15 mL tube. Collected cells are then mixed into an even suspension. A 20 μl, aliquot of this suspension is immediately transferred into a 96-well plate containing 180 μl, PBS+4% FBS+CD45 Alexa 700+PI to determine cell count and viability post spin. After the determination, the 15 mL tubes are centrifuged at 930 RPM (200×g) for 8 minutes at room temperature. The resulting supernatant is aspirated, and the cells are gently resuspended in 4 mL PBS+4 μl, Amine Aqua (another equivalent viability dye can be used instead) and incubated for 15 min in a 37° C. incubator. 10 mL RPMI+1% FBS are added to the cell suspension, followed by inversion mixing. The 15 mL tubes are centrifuged at 930 RPM (200×g) for 8 minutes at room temperature. The stained cells are then resuspended in Media A at the desired cell concentration (1.25×10^6/mL). • a. Samples with low numbers of cells (<18.5×10^6) are resuspend in up to 15 mL of media. • b. For samples with high numbers of cells (>18.5×10^6), the volume is raised to 10 mL with media A and the desired volume is transferred to a new 15 mL tube, adjusting the cell concentration to 1.25×10^6 cells/mL. 1.6 mL of the above cell suspension are then transferred into wells of a multi-well plate, from which 80 ul are distributed into each well of a subsequent plate. Plates are covered with a lid (Nunc) and placed in a 37° C. incubator for 2 hours to rest.
Treatment of Cells with a Modulator: A concentration for each stimulant that is five fold (5×) more than the final concentration is prepared using Media A as diluent. The 5× stimulants are arrayed in a standard 96 well v-bottom plate that correspond to the wells on the plate with cells to be stimulated. Fixative is prepared by dilution of stock 16% paraformaldehyde with PBS to a concentration that is 1.5×, then placed in a 37° C. water bath. Once the plated cells have completed their incubation, the plate(s) are taken out of the incubator and place in a 37° C. water bath next to the pipette apparatus. Prior to addition of stimulant, each plate of cells is taken from the water bath and gently swirled to resuspend any settled cells. The stimulant is pipetted into the cell plate, which is then held over a vortexer set to “7” and mixed for 5 seconds, and followed by the return of the deep well plate to the water bath.
Fixing Cells: 200 μL of the fixative solution (final concentration is 1.6%) is dispensed into wells and then mixed on the titer plate shaker on high for 5 seconds. The plate is then covered with foil sealer and floated in 37° C. water bath for 10 min, followed by a 6 min spin at 2000 rpm at room temperature.

Ramos cells = test: Mylotarg exposure, multiparameter flow cytometry of DNA damage and cell cycle; assay type: cell-based
From the text: (§4) ATM activity also phosphorylates Chk2 and p53. […] Cyclin B1 is produced during the G2 phase of the cell cycle and its accumulation drives the cell cycle into M phase. Therefore, low levels of Cyclin B1 mark G1 and S phases, high levels mark G2 phase, and higher levels mark M phase. Histone H3 (S28) becomes phosphorylated in M phase, making p-Histone H3(S28) a useful marker of cells in M phase and not G2. It is also possible to monitor the G2/M phases of the cell cycle by measuring the phosphorylation status of Cdk1, previously known as Cdc2, a cyclin-dependent protein kinase that controls the cell cycle entry from G2 to M phase. An inhibitory phosphorylation on Cdk1 is removed by CDC25C in the M phase transition, allowing G2 cells to be distinguished from M cells based on levels of p-Cdk1. […] Treating cells with the microtubule polymerization inhibitor Nocodazole induces cells cycle arrest in M phase without DNA damage.
The experimental measurements included forward and side scatter, the use of viability dyes (amine aqua and propidium iodide (PI)), and determination of cell cycle and apoptosis by measuring DNA content with DRAQ5. Additionally, cell cycle progression was measured by determining levels of cyclin B1, phosphorylated histone H3, and phosphorylated CDK-1. All these determinations were made in freshly thawed as well as in cultured cycling cells. […]

KG-1 cells = test: Mylotarg exposure, multiparameter flow cytometry of DNA damage, cell cycle and apoptosis; assay type: cell-based
From the text: as §4, §1
(§5) The experiments were conducted in a similar fashion as shown above for examples 1 and 2. […] After incubation with fluorochrome-conjugated antibody panels that recognized: p-H2AX, p-Chk2, p-ATM, p-53, cleaved PARP and cleaved caspase 3, cells were processed for cytometry as described above.

GDM-1 cells = test: as above; assay type: cell-based
From the text: as §4, §1, §5

[2] = test system: Mylotarg sensitive cell lines; test: Mylotarg exposure and modulated signaling in sensitive cell lines; assay type: cell-based
Method: as §1, §2, §3

U937 cell line = test: Mylotarg/Nocodazole exposure, multiparameter flow cytometry of DNA damage, cell cycle and apoptosis; assay type: cell-based
From the text: as §4, §1, §2

[3] = test system: Peripheral blood mononuclear cells and bone marrow mononuclear cells derived from AML and healthy samples; test: Expression marker levels after Mylotarg exposure; assay type: cell-based
[4] = lyophilized powder; cited from earlier work

Substance: gemtuzumab ozogamicin [Mylotarg]
- cleaved PARP and apoptosis (Healthy myeloid cells): increases in cleaved PARP and apoptosis
- levels of p-Chk2, p-H2AX, p-ATM, p-P53 (Healthy myeloid cells): increased levels
- G2/M arrest [1]: failure to undergo G2/M arrest
- cell death [1]: only modest increase in cell death
- cyclin B1 levels [1]: failure to increase cyclin B1 levels
- p-H2AX and p-Chk2 [1]: minimal increase in p-H2AX and p-Chk2
- CD33++ cells with induced DNA damage response, as measured by p-CHK2 and p-H2AX (primary AML cell sample; signature 1 sample, 6 hours of exposure to Mylotarg): approximately 60%
- live myeloid cells becoming PARP+ (primary AML cell sample; signature 1 sample, after 24 and 48 hours): 22%
- CD33++ cells with induced DNA damage response, as measured by p-CHK2 and p-H2AX (primary AML cell sample; signature 2 sample, 6 hours of exposure to Mylotarg): approximately 80%
- live myeloid cells becoming PARP+ (primary AML cell sample; signature 2 sample, after 24 or 48 hours): 4%
- live myeloid cells becoming PARP+ (primary AML cell sample; signature 3 sample): 8%
- CD33+ cells with induced DNA damage response, as measured by p-CHK2 and p-H2AX (primary AML cell sample; signature 3 sample, 6 hours of exposure to Mylotarg): approximately 15%
- DNA damage response (levels of p-H2AX, p-p53, p-Chk2, p-ATM) (Ramos cells): does not induce changes
- proportion of populations of cells arrested in the cell cycle (p-Histone H3(S28), p-CDK1, CyclinB1) (Ramos cells): does not largely increase
- DNA damage response (levels of p-H2AX, p-p53, p-Chk2, p-ATM) (KG-1 cells): does not induce changes; also recorded: this was not the case
- cell cycle arrest and apoptosis after Mylotarg treatment (KG-1 cells): resistant to cell cycle arrest and apoptosis
- proportion of populations of cells arrested in the cell cycle (p-Histone H3(S28), p-CDK1, CyclinB1) (KG-1 cells): does not largely increase
- DNA damage response (levels of p-H2AX, p-p53, p-Chk2, p-ATM) (GDM-1 cells): does not induce changes; also recorded: this was not the case
- cell cycle arrest and apoptosis after Mylotarg treatment (GDM-1 cells): resistant to cell cycle arrest and apoptosis
- proportion of populations of cells arrested in the cell cycle (p-Histone H3(S28), p-CDK1, CyclinB1) (GDM-1 cells): does not largely increase
- G2/M arrest [2]: G2/M arrest
- cyclin B1 levels [2]: increase in cyclin B1 levels; also recorded: increased cyclin B1 levels
- p-H2AX and p-Chk2 [2]: increased p-H2AX and p-Chk2 without transporter inhibitor
- cell death (scatter, viability and DNA content dyes) ([2]; compared to refractory cell lines): more cell death; also recorded: increased percentage of dead cells
- DNA damage response (levels of p-H2AX, p-Chk2, p-ATM, p-53) (U937 cell line): increased levels; also recorded: significant increase
- cell cycle arrest (Cyclin B1, p-Histone H3(S28), p-Cdk1) (U937 cell line; 24 hours exposure): arrest at the G2/M checkpoint
- cell cycle arrest (Cyclin B1, p-Histone H3(S28)) (U937 cell line; 48 hours exposure): arrest at the G2/M checkpoint, and a minor cell population with increased p-histone H3(S28), indicating minor arrest in M phase
- expression levels of the CD33 and CD13 phenotypic markers for myeloid cells ([3]; exposed for 6 hours): reduction
- CD11b levels ([3]; same exposure conditions): remain unchanged
- CD13 levels ([3]; twenty-four (24) hours of exposure): reduced
- light sensitivity of the drug product [4]: light sensitive
